Data reported in publication PMC12163635, “Synthetic Retinoids for the Modulation of Genomic and Nongenomic Processes in Neurodegenerative Diseases” (ACS Omega, 2025).

Legend:
[1] = test system: ERK1/2 phosphorylation in SH-SY5Y cells; assay: ERK1/2 phosphorylation (nongenomic response), AlphaScreen SureFire; format: cell-based, human; parameters: nongenomic response Emax (±95% CI): unit not given here; settings: for EC50: Homo sapiens, read-out: nongenomic response EC50 (±95% CI); for nongenomic E max compared with ATRA: nonoverlapping 95% CI
Method: After screening the retinoids for genomic responses, they were tested for their nongenomic ability to rapidly phosphorylate ERK1/2 in the SH-SY5Y cell line. ATRA is known as a potent activator of ERK1/2 − and was used as the standard for comparison. […] The efficacies of the remaining seven retinoids were similar to ATRA.
SH-SY5Y cell line as used in ERK phosphorylation and neurite outgrowth assays described below. The cells were grown in DMEM containing 10% FCS at 37 °C with 5% CO2. The medium was changed three times a week and the cells were passaged at 70% confluence using 0.05% trypsin-EDTA.
To quantify ERK1/2 phosphorylation, SH-SY5Y cells (100,000 cells/well) were plated onto 96-well plates and serum-starved for 24 h in DMEM. Cells were assayed in serum-free DMEM and stimulated for 60 min at 37 °C in a humidified atmosphere. Retinoids were tested at concentrations ranging from 10 to 4 to 10–11 M and at a final concentration of 0.1% DMSO. At the end of the assay, the medium was removed, and cells were lysed with lysis buffer supplied in the AlphaScreen SureFire ERK1/2 kit (PerkinElmer). The assay was performed in 384-well white Proxiplates according to the manufacturer’s instructions and using the beads supplied in the protein A general IgG detection kit (PerkinElmer). Briefly, 4 μL samples were incubated with 7 μL of the freshly prepared mixture containing donor and acceptor beads. Plates were incubated at room temperature and read with the Envision system (PerkinElmer Life Sciences) using AlphaScreen settings.
(§1) All data are presented as mean ± SEM of three independent experiments with biological triplicates. Statistical analyses were performed in Microsoft Office Excel 2019 or GraphPad Prism 7.0c version (Prism, GraphPad Software, San Diego, CA). Neurite outgrowth data were analyzed by one-way ANOVA with Newman-Keuls multiple comparison test as appropriate; P value <0.05 was considered statistically significant. *P < 0.05, **P < 0.01. Data for X-Gal and ERK1/2 phosphorylation were analyzed using sigmoidal dose–response analysis of log (agonist) versus response curve (stimulation).

[2] = test system: Sil-15 cells containing a RARE driving a lacZ reporter; assay: X-Gal-based RA reporter assay (genomic response); format: cell-based; parameters: genomic response Emax (±95% CI): unit not given here; settings: for genomic response Emax (±95% CI) / EC50: Sil-15 reporter cells; for genomic response Emax (±95% CI): absorbance at 650 nm; for genomic EC50 compared with ATRA / genomic E max compared with ATRA: nonoverlapping 95% CI; for EC50: read-out: genomic response EC50 (±95% CI), overnight, 10^–6 to 10^–14 M
Source text: Following chemical design and synthesis, the synthetic retinoid library was screened for genomic and nongenomic biological activities and compared to the response of the endogenous retinoid, ATRA. In these assays, the EC50 value represented the concentration of retinoid that gave half-maximal response (potency), while the E max value represented the maximum response achievable from the retinoid (efficacy).
The transcriptional genomic activity of the retinoids was quantified using Sil-15 cells containing a RARE driving a lacZ reporter. […] Twenty-two of the synthetic retinoids were effective in inducing genomic activity. […] In addition, the retinoids varied in their efficacies.
The Sil-15 cell line was used in the X-gal RA reporter assay described below. The cells were grown in Dulbecco’s modified Eagle’s medium (DMEM) containing 10% fetal bovine serum (FCS) (Invitrogen/Gibco), 0.6% penicillin-streptomycin (Gibco) and 0.8 mg/mL G418 sulfate (Sigma) for selection. They were maintained in a humidified atmosphere containing 5% CO2 at 37 °C. The medium was changed three times a week and the cells were passaged at 70% confluence using 0.05% trypsin-EDTA.
Sil-15 cells are F9 teratocarcinoma cells stably transfected with a plasmid containing the LacZ gene under the control of a DR5-type RA response element (RARE). The reporter cell line was used to detect the transcriptional genomic activity of ATRA and other retinoids by colorimetrically quantifying the insoluble blue product generated by β-galactosidase from X-gal during the assay. The assay was performed by plating 100,000 cells per well in the 0.1% gelatin-coated 96-well plates and leaving them to attach overnight. The ATRA/retinoids dilutions ranging from 10^–6 to 10^–14 M were incubated on the reporter cells overnight at 37 °C, in 5% CO2. A standard curve of ATRA was included in each experiment to ensure the reproducibility of the results between assays performed on different days. All the assays for ATRA as well as the retinoids were quantified in triplicate. Serial dilutions of retinoids were prepared from a stock solution under red/orange light. The stock solutions prepared in DMSO for each retinoid varied depending on the solubility of each compound. Each stock was stored at −20 °C and protected from light. The next day, Sil-15 cells were washed with PBS, fixed with 1% glutaraldehyde and 1 mM MgCl2 solution for 15 min, and developed in X-gal developing solution (0.2% X-Gal, 1 mM MgCl2, 3.3 mM potassium ferricyanide and 3.3 mM potassium ferrocyanide in PBS). The plates were read on an E max microplate reader (Molecular Devices) at 650 nm.
as §1

| Compound | EC50 ([1]; SH-SY5Y cells, 1 h) [nM] | nongenomic response Emax (±95% CI) ([1]; SH-SY5Y cells, 1 h) | nongenomic E max compared with ATRA [1] | genomic response Emax (±95% CI) [2] | genomic EC50 compared with ATRA [2] | EC50 [2] [nM] | induction of ERK1/2 phosphorylation (nongenomic activity) ([1]; SH-SY5Y cells, 1 h) | genomic E max compared with ATRA [2] | nongenomic response EC50 (±95% CI) ([1]; SH-SY5Y cells, 1 h) |
| --- | --- | --- | --- | --- | --- | --- | --- | --- | --- |
| COc1cc2c(cc1C#Cc1ncc(C(=O)O)cn1)C(C)(C)CCC2(C)C [Compound 29, 2-[2-(3-Methoxy-5,5,8,8-tetramethyl-5,6,7,8-tetrahydronaphthalen-2-yl)ethynyl]pyrimidine-5-carboxylic Acid] | 87.4 | 37.5 (±2.12) | E max values significantly lower than ATRA | 266 (±110) | significantly higher EC50 values than ATRA | 603 | – | – | – |
| CC1(C)CCC(C)(C)c2nc(C#Cc3ccc(C(=O)O)cc3)cnc21 [Compound 30, 4-[2-(5,5,8,8-Tetramethyl-5,6,7,8-tetrahydroquinoxalin-2-yl)ethynyl]benzoic Acid] | 8.54 | 91.6 (±3.21) | E max values significantly higher than ATRA | – | significantly lower EC50 than ATRA | – | showed activity toward the nongenomic pathway | – | – |
| CC1(C)CCC(C)(C)c2nc(C#Cc3ccc(C(=O)O)cc3F)cnc21 [Compound 31, 3-Fluoro-4-[2-(5,5,8,8-tetramethyl-5,6,7,8-tetrahydroquinoxalin-2-yl)ethynyl]benzoic Acid] | 58.4 | 91.6 (±3.84) | E max values significantly higher than ATRA | – | significantly lower EC50 than ATRA | 0.382 | – | – | – |
| Cc1sc(-c2ccc(C(=O)O)cc2)nc1-c1cnc2c(n1)C(C)(C)CCC2(C)C [Compound 40, 4-[5-Methyl-4-(5,5,8,8-tetramethyl-5,6,7,8-tetrahydroquinoxalin-2-yl)-1,3-thiazol-2-yl]benzoic Acid] | 0.0532 | 40.7 (±1.02) | E max values significantly lower than ATRA | 181 (±7.45) | significantly lower EC50 than ATRA | 0.00232 | – | significantly higher E max than ATRA | – |
| Cc1sc(-c2ccc(C(=O)O)cn2)nc1-c1cnc2c(n1)C(C)(C)CCC2(C)C [Compound 41, 6-[5-Methyl-4-(5,5,8,8-tetramethyl-5,6,7,8-tetrahydroquinoxalin-2-yl)-1,3-thiazol-2-yl]pyridine-3-carboxylic Acid] | 15.4 | 55.26 (±0.00) | E max values significantly higher than ATRA | 144 (±16.5) | significantly higher EC50 values than ATRA | 16.9 | – | significantly lower E max than ATRA | – |
| Cc1sc(-c2ccc(C(=O)O)c(F)c2)nc1-c1cnc2c(n1)C(C)(C)CCC2(C)C [Compound 42, 2-Fluoro-4-[5-methyl-4-(5,5,8,8-tetramethyl-5,6,7,8-tetrahydroquinoxalin-2-yl)-1,3-thiazol-2-yl]benzoic Acid] | 12.5 | 54.1 (±4.07) | – | – | significantly lower EC50 than ATRA | 0.0155 | – | significantly higher E max than ATRA | – |
| Cc1sc(-c2ccc(C(=O)O)cc2F)nc1-c1cnc2c(n1)C(C)(C)CCC2(C)C [Compound 43, 3-Fluoro-4-[5-methyl-4-(5,5,8,8-tetramethyl-5,6,7,8-tetrahydroquinoxalin-2-yl)-1,3-thiazol-2-yl]benzoic Acid] | – | no response | – | 195 (±35.2) | – | 1.64 | lacked nongenomic activity | significantly higher E max than ATRA | no response |
| Cc1sc(-c2ccc(C(=O)O)cc2)nc1-c1ccc2c(c1)C(C)(C)CCC2(C)C [GZ25, reference compound] | 3.57 | 76.6 (±2.61) | E max values significantly higher than ATRA | 209 (±15.5) | significantly lower EC50 than ATRA | 0.184 | – | significantly higher E max than ATRA | – |
